# Measurements as given in patent US4354039A, “Chlorocitric acids” (Hoffmann-La Roche Inc., priority 1981, dated 1982).
# Several values for one entry are separate records, joined by “and”; a condition that tells them apart may be missing. Equal entries are not always repeated. Where two headings read alike, the source gives them in different places.
# Experiments:
# [1] = Anorectic activities of stereoisomers, 3-day food consumption and body weight gain (Example 16); format: in vivo, Charles River female rats; settings: 1.32 mmoles/kg oral, 3 days
# Procedure: Charles River female rats (Charles River Breeding Laboratories, Wilmington, Mass.), weighing 196 to 210 g, were individually housed in wire-bottomed cages in a temperature-regulated (22° C.) light-controlled room (12 hr light, 6 a.m. to 6 p.m. and 12 hr dark, 6 p.m. to 6 a.m.). Animals were fasted 48 hr, then meal-fed a 70% glucose diet from 8 to 11 a.m. Following 5 to 12 days alimentation on the meal-feeding regimen, rats were dosed with the appropriate compounds orally by intubation 1/2 hr before the 3 hr meal for 3 days. The total food consumption and body weight gained during the 3 day period were determined. The control group consisted of 16 rats, while the experimental group consists of 8 rats.
# [2] = Body composition of meal-fed rats, 16 day study (Example 20); format: in vivo, Charles River female rats; settings: in words
# Procedure: Two month old Charles River female rats (Charles River Breeding Laboratories, Wilmington, Mass.) were individually housed in wire-bottomedcages in a temperature-regulated (22° C.) light-controlled room (12 hr light, 6 a.m. to 6 p.m. and 12 hr dark, 6 p.m. to 6 a.m.). […] (1) control, (2) (-)-threo-chlorocitric acid (1.0 mmoles/kg, 227 mg/kg) administered by oral intubation 30 min before the 3 hr meal, and (3) (-)-threo-chlorocitric acid (1.1 mmoles/kg, 250 mg/kg as a dietary admixture for the 3 hr meal. Treatment was continued for 16 days. After 16 days of treatment, rats were killed by decapitation and blood was removed. […] C. Sullivan, et al, Am. J. Clinical Nutrition, 30 767 (1977). […] Total carcass lipid data are expressed in grams and percentages of carcass weight. An aliquot of saponified carcass extract was neutralized and total carcass nitrogen was determined using the Kjeldahl procedure described in "Hawks" Physiological Chemistry," B. L. Oser, ed., McGraw Book Co., New York, N.Y., 1965, page 1214. Carcass protein data are expressed in grams and percentages of carcass weight.
# [3] = Total body fat in meal-fed rats, oral, 17 day study (Example 22); format: in vivo, Charles River female rats; settings: Chow, 17 days
# Procedure: Two month old Charles River female rats (Charles River Breeding Laboratories, Wilmington, Mass.) were individually housed in wire-bottomedcages in a temperature-regulated (22° C.) light-controlled room (12 hr light, 6 a.m. to 6 p.m. and 12 hr dark, 6 p.m. to 6 a.m.). […] On the 8th day, the animals were administered water or (-)-threo-chlorocitric acid at the indicated concentration by oral intubation 30 min before the 3 hr meal. Treatment was continued for 17 days. Food cups were weighed immediately after the meal. After 17 days of treatment, rats were killed by decapitation and blood was removed. […] C. Sullivan, et al, Am. J. Clinical Nutrition, 30 767 (1977). […] Total carcass and lipid data are expressed in grams and percentages of carcass weight.
# [4] = test system: isolated rat hepatocytes; experiment: Fatty acid and cholesterol synthesis and CO2 production in isolated hepatocytes (Example 23); format: cell-based, Female Charles River rats; settings: for activity at 2000 µM: Rattus norvegicus, Hepatocyte, 1 h
# Summary of the method: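 Hepatocytes came from female rats fasted 48 hr and then meal-fed a 70% glucose, 1% corn oil diet for 7-14 days, isolated by in situ liver perfusion. Incubations ran 60 min at 37° C in triplicate. 14CO2 was trapped and counted, and incorporation of 3H2O and [14C]alanine into hexane-extracted fatty acids or sterols was measured by scintillation.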
# [5] = Food intake in dogs, pyramiding oral doses (Examples 26 and 27); format: in vivo, beagle dogs
# Procedure: Twelve beagle dogs of both sexes weighing 7.6-12.2 kg were used for this test. The test compounds were contained in gelatin capsules for oral administration to two dogs of each sex. The animals were weighed and food consumption calculated daily excluding weekends throughout the test period. Each animal received 800 grams of diet daily consisting of 400 grams of Wayne pellet dog food mixed with 400 ml distilled water. The animals received pyramiding oral doses of the test compound over the three week period. On Monday and Tuesday of the first week the animals were weighed and food consumption was recorded (control). […] Doses of 30, 100 and 300 mg/kg were administered on Monday, Wednesday and Friday respectively during the second week. A final dose of 1000 mg/kg was administered on Monday of the third week.
# Food intake was determined by the procedure at pyramiding doses described in EXAMPLE 26.
# [6] = test day 8, dose 100 mg/kg oral
# [7] = test day 10, dose 300 mg/kg oral
# [8] = test day 13, dose 1000 mg/kg oral
smiles,measurement,setting,value
O=C(O)C[C@@](O)(C(=O)O)[C@@H](Cl)C(=O)O [(-)-threo-Chlorocitric acid],"3-Day Body Weight Gain, % of initial body weight",[1],-11.0 % of initial body weight
same,"3-Day Food Consumption, % of control",[1],37 % of control
same,"weight loss, carcass analysis",[2],weight loss was due to reduction in body lipids
same,"Carcass Lipid % carcass, % of control",[3]; 0.25 mmoles (57 mg)/kg oral,99 % of control
same,"Carcass Lipid total, % of control",[3]; 0.25 mmoles (57 mg)/kg oral,101 % of control
same,"Carcass Lipid, % carcass",[3]; 0.25 mmoles (57 mg)/kg oral,4.56 ± 0.42 % carcass
same,"Carcass Lipid, total",[3]; 0.25 mmoles (57 mg)/kg oral,9.64 ± 0.80 g
same,Carcass Weight,[3]; 0.25 mmoles (57 mg)/kg oral,213 ± 4 g
same,"Carcass Lipid % carcass, % of control",[3]; 0.50 mmoles (114 mg)/kg oral,58 % of control
same,"Carcass Lipid total, % of control",[3]; 0.50 mmoles (114 mg)/kg oral,50 % of control
same,"Carcass Lipid, % carcass",[3]; 0.50 mmoles (114 mg)/kg oral,2.70 ± 0.17 % carcass
same,"Carcass Lipid, total",[3]; 0.50 mmoles (114 mg)/kg oral,4.80 ± 0.48 g
same,Carcass Weight,[3]; 0.50 mmoles (114 mg)/kg oral,173 ± 4 g
same,"Carcass Lipid % carcass, % of control",[3]; 1.00 mmoles (227 mg)/kg oral,52 % of control
same,"Carcass Lipid total, % of control",[3]; 1.00 mmoles (227 mg)/kg oral,41 % of control
same,"Carcass Lipid, % carcass",[3]; 1.00 mmoles (227 mg)/kg oral,2.40 ± 0.22 % carcass
same,"Carcass Lipid, total",[3]; 1.00 mmoles (227 mg)/kg oral,3.92 ± 0.37 g
same,Carcass Weight,[3]; 1.00 mmoles (227 mg)/kg oral,163 ± 7 g
same,"CO2 Production, [14C]alanine converted","[4]; 2 mM, 60 min, 37° C., 2000 µM",91 % of control
same,"Cholesterol Synthesis, [14C]alanine converted","[4]; 2 mM, 60 min, 37° C., 2000 µM",92 % of control
same,"Fatty Acid Synthesis, 3H2O converted","[4]; 2 mM, 60 min, 37° C., 2000 µM",95 % of control
same,"Fatty Acid Synthesis, [14C]alanine converted","[4]; 2 mM, 60 min, 37° C., 2000 µM",124 % of control and 96 % of control
same,activity at 2000 µM,"[4]; 2 mM, 60 min, 37° C., read-out: CO2 Production, [14C]alanine converted",83%
same,activity at 2000 µM,"[4]; 2 mM, 60 min, 37° C., read-out: Cholesterol Synthesis, 3H2O converted",116%
same,activity at 2000 µM,"[4]; 2 mM, 60 min, 37° C., read-out: Cholesterol Synthesis, [14C]alanine converted",88%
same,activity at 2000 µM,"[4]; 2 mM, 60 min, 37° C., read-out: Fatty Acid Synthesis, 3H2O converted",106%
same,inhibition of lipid (fatty acid) and cholesterol syntheses,[4]; in words,devoid of metabolic activity as an inhibitor of lipid and cholesterol syntheses
same,Food Consumption,"[5]; test day 1, dose 3 mg/kg oral",450 ± 165 g
same,"Food Consumption, % of control","[5]; test day 1, dose 3 mg/kg oral",60 % of control
same,Food Consumption,"[5]; test day 2, no dose",646 ± 83 g
same,"Food Consumption, % of control","[5]; test day 2, no dose",87 % of control
same,Food Consumption,"[5]; test day 3, dose 10 mg/kg oral",440 ± 121 g
same,"Food Consumption, % of control","[5]; test day 3, dose 10 mg/kg oral",59 % of control
same,Food Consumption,"[5]; test day 6, dose 30 mg/kg oral",406 ± 86 g
same,"Food Consumption, % of control","[5]; test day 6, dose 30 mg/kg oral",55 % of control
same,Food Consumption,"[5]; test day 7, no dose",668 ± 115 g
same,"Food Consumption, % of control","[5]; test day 7, no dose",90 % of control
same,Food Consumption,[5]; [6],142 ± 38 g
same,"Food Consumption, % of control",[5]; [6],19 % of control
same,Food Consumption,"[5]; test day 9, no dose",619 ± 62 g
same,"Food Consumption, % of control","[5]; test day 9, no dose",83 % of control
same,Food Consumption,[5]; [7],55 ± 39 g
same,"Food Consumption, % of control",[5]; [7],7 % of control
same,Food Consumption,[5]; [8],56 ± 22 g
same,"Food Consumption, % of control",[5]; [8],8 % of control
same,Food Consumption,"[5]; test day 14, no dose",439 ± 163 g
same,"Food Consumption, % of control","[5]; test day 14, no dose",59 % of control
same,Food Consumption,"[5]; test day 15, no dose",583 ± 149 g
same,"Food Consumption, % of control","[5]; test day 15, no dose",78 % of control
same,Food Consumption,"[5]; test day 16, no dose",600 ± 76 g
same,"Food Consumption, % of control","[5]; test day 16, no dose",81 % of control
same,Food Consumption,"[5]; test day 17, no dose",677 ± 73 g
same,"Food Consumption, % of control","[5]; test day 17, no dose",91 % of control
same,Food Consumption,"[5]; test day 21, no dose",644 ± 100 g
same,"Food Consumption, % of control","[5]; test day 21, no dose",87 % of control
same,Food Consumption,"[5]; test day 22, no dose",800 ± 0 g
same,"Food Consumption, % of control","[5]; test day 22, no dose",108 % of control
same,Food Consumption,"[5]; test day 23, no dose",596 ± 121 g
same,"Food Consumption, % of control","[5]; test day 23, no dose",80 % of control
same,Food Consumption,"[5]; test day 24, no dose",695 ± 79 g
same,"Food Consumption, % of control","[5]; test day 24, no dose",94 % of control
same,Food Consumption,"[5]; test day 27, no dose",732 ± 68 g
same,"Food Consumption, % of control","[5]; test day 27, no dose",99 % of control
same,Food Consumption,"[5]; test day 28, no dose",775 ± 26 g
same,"Food Consumption, % of control","[5]; test day 28, no dose",104 % of control
